These are literature values, as cited in US7446222B2, “Phenyl compounds” (Glaxo Group Limited, priority 2002, dated 2008).

Series [1] has as its target T1, human EP1 prostanoid receptor (Homo sapiens, UniProt P34995).
T1 sequence (P34995 1-402): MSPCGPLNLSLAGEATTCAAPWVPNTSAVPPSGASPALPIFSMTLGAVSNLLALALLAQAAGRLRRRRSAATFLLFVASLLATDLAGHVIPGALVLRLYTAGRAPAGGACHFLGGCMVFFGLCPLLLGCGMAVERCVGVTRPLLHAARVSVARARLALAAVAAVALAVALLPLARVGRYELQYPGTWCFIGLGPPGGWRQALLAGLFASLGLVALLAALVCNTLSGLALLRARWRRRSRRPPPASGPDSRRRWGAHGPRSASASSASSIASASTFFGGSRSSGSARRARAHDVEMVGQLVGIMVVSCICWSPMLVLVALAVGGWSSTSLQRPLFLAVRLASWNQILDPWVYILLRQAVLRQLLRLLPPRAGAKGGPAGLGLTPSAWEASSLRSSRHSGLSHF
To be noted: human EP1 prostanoid receptor ligand.

Series [2] relates to rodent model of post-operative pain.
Series [3] concerns rat model of chronic constriction injury.

With `O=C(O)c1ccc(-c2ccccc2-c2ccccc2OCc2ccccc2)cc1` [2-benzyloxy[1,1′;2′,1″]terphenyl-4″-carboxylic acid], in series [1], the “potency compared with the comparable 2,3-diarylthiophene compound” value was “less potent” and the “selectivity compared with the comparable 2,3-diarylthiophene compound” value is “less selective”.

Regarding `Cc1cc(Cl)ccc1S(=O)(=O)NC[C@H]1C2CCC(CC2)[C@@H]1/C=C\CCCC(=O)O` [ONO-8711], in series [2], the “effect on mechanical hyperalgesia” value is “inhibits mechanical hyperalgesia”. In addition, in series [3], the “effect on hyperalgesia and allodynia” value is “reduces hyperalgesia and allodynia”.
